Laboratory results reported in patent publication US12285428B2 (IMBRIA PHARMACEUTICALS, INC., priority 2021, dated 2025).

Experiments:
[1] = system: patients with Type 2 Diabetes mellitus and obesity; experiment: Open label Phase 2 study IMB101-005 DICE: spontaneously reported renal and urinary findings; assay type: in vivo, human; settings: 200 mg MR BID for 8 weeks (N=22)
Protocol: In the early Phase 1 study in healthy volunteers and early Phase 2 studies in patients, there were instances of increased urine volume and increased urinary frequency spontaneously reported. • In the first-in-man study, CIMB8972-101, healthy volunteers were dosed with single doses of IMB-1018972 at 50 mg or 200 mg of the modified release (MR) formulation. Two of 12 subjects [2/12] (16.7%) reported 5 events of pollakiuria at both doses. • In an open label Phase 2 study (IMB101-005 DICE) treating patients with Type 2 Diabetes mellitus and obesity for 8 weeks with 200 mg MR BID, two of 22 patients [2/22] (9.1%) spontaneously reported renal and urinary findings. One patient reported pollakiuria and one patient reported increased nocturnal urinary frequency. • In a blinded, randomized, controlled, Phase 2 study (IMB101-006 […]) treating patients with stable angina for 8 weeks with 200 mg MR BID, one of 22 patients [1/22] (4.5%) spontaneously reported renal and urinary findings. One patient reported polyuria.

[2] = system: healthy subjects; experiment: FIH study, single-dose MR part: safety and tolerability; assay type: in vivo, human; settings: for ALT, Subject 505: normal range 0-68 IU/L
Protocol: The subjects received a single oral dose of 1 of 4 MR formulations of IMB-1018972 under fasted conditions (an overnight fast of at least 10 hours) on Days 1, 4, 7, and 10 in a fixed order that was the same for all subjects. The MR formulation of IMB-1018972 to be administered on Day 13 under fed conditions was 1 of the 4 MR formulations administered on Days 1, 4, 7, and 10 under fasted conditions. The formulation chosen for administration on Day 13 was the 200 mg 8-hour MR formulation as determined by the Sponsor based on the available safety, tolerability, and PK results of the 4 MR formulations.
(§1) AEs were recorded from (first) admission until completion of the follow-up visit. Any clinically significant observations in results of clinical laboratory, 12-lead ECGs, vital signs, or physical examinations were recorded as AEs.
(§2) A treatment-emergent AE (TEAE) was defined as any event not present prior to (the first) administration of the study drug or any event already present that worsened in either severity or frequency following exposure to the study drug.
(§3) At several time points before and after drug administration, subjects were asked nonleading questions to determine the occurrence of AEs. Subjects were asked in general terms about any AEs at regular intervals during the study. In addition, all AEs reported spontaneously during the course of the study were recorded. Details included description of the event, date and time of onset, date and time of end, total duration, severity, relationship to study drug, intervention, seriousness, and outcome. All answers were interpreted by the Investigator and were recorded in the eCRF. All AEs were classified according to the Medical Dictionary for Regulatory Activities (MedDRA; Version 22.0) for AEs.
(§4) The severity of the AEs was rated as mild, moderate, or severe; the relationship between the AEs and the study drug was indicated as none, unlikely, possibly, likely, or definitely. Adverse events assessed as possibly, likely, or definitely were considered related to the study drug; AEs assessed as none or unlikely were considered not related to the study drug.
(§5) The following parameters were measured: • Clinical chemistry (serum quantitatively): total bilirubin, alkaline phosphatase, gamma glutamyl transferase, aspartate aminotransferase (AST), alanine aminotransferase (ALT), lactate dehydrogenase, creatinine, urea, total protein, glucose, inorganic phosphate, sodium, potassium, • calcium, and chloride • Hematology (blood quantitatively): leukocytes, erythrocytes, hemoglobin, hematocrit, thrombocytes, partial automated differentiation (lymphocytes, monocytes, eosinophils, basophils, and neutrophils), mean corpuscular volume, mean corpuscular hemoglobin, and mean corpuscular hemoglobin concentration • Coagulation (blood quantitatively): prothrombin time (reported in seconds and as international normalized ratio), activated partial thromboplastin time, and fibrinogen • Urinalysis (urine qualitatively): hemoglobin, urobilinogen, ketones, glucose, and protein • Serology: HBsAg, anti-HCV, and anti-HIV 1 and 2 • Drug and alcohol screen: opiates, methadone, cocaine, amphetamines (including ecstasy), cannabinoids, barbiturates, benzodiazepines, tricyclic antidepressants, and alcohol • Pregnancy test (females only): (3-human chorionic gonadotropin in serum

[3] = system: healthy subjects; experiment: FIH study, SAD part (and integrated FE arm): safety and tolerability
Protocol: In Groups A1, A2, A3, and A4, subjects received a single oral dose of an IR formulation of IMB-1018972 or placebo under fasted conditions (an overnight fast of at least 10 hours). […] Each subject participated in only 1 group during the study.
as §1, §2, §3, §4, §5
(§6) Systolic and diastolic blood pressure and pulse were recorded after the subject had been resting for at least 5 minutes in the supine position. These assessments were made using an automated device. Body temperature and respiratory rate were measured subsequently.
(§7) The ECG was recorded using an ECG machine equipped with computer-based interval measurements (with no/minimal disturbance by procedures). The following ECG parameters were recorded: heart rate, PR-interval, QRS-duration, QT-interval, QTcF-interval, and the interpretation of the ECG profile by the Investigator.
In the SAD part (not in the second period of the FE group A4, and not in Group A5), a 12-lead ECG was recorded continuously by telemetry from 2 hours before to 24 hours after drug administration on Day 1.

[4] = system: dog; experiment: 28-day dog study (nonclinical toxicology: NOAEL and exposure); settings: in vivo
Protocol: Based on the nonclinical toxicology data, it was considered that subjects in this clinical study were not at unreasonable risk of adverse effects. […] For a 60-kg individual, the NOAEL dose would be 6480 mg. With a 10-fold safety factor applied, this would allow for a maximum recommended starting dose (MRSD) of 648 mg/day.7,8 The planned starting dose in the current Phase 1 study was 50 mg, equivalent to 0.83 mg/kg/day for a 60-kg subject. This starting dose is less than 10% of the MRSD determined from the dog NOAEL and less than 1% of the dog NOAEL
The relevant animal study was the 28-day dog study where the NOAEL for IMB-1018972 was 200 mg/kg/day.

[5] = system: healthy subjects; experiment: FIH study, multiple-dose MR part: safety and tolerability; assay type: in vivo, human
Protocol: as §1, §2, §3, §4

[6] = system: healthy subjects; experiment: FIH study, whole study: safety and tolerability
Protocol: The study started with the SAD part.
as §1, §2, §3, §4, §5, §6, §7
Safety and tolerability were assessed through AEs, clinical laboratory, vital signs, ECGs, continuous cardiac monitoring (telemetry), and physical examination findings, and any other parameter that was relevant for safety assessment.

[7] = 50 mg 4-hour MR formulation of IMB-1018972, fasted
[8] = 200 mg 4-hour MR formulation of IMB-1018972, fasted
[9] = single doses of 50 mg or 200 mg MR IMB-1018972 (N=12)
[10] = single-dose MR part, IMB-1018972 (N=12)
[11] = single-dose MR part, of 37 TEAEs
[12] = 150 mg IMB-1018972 fasted (fasted-fed group)
[13] = 150 mg IMB-1018972 fed (fasted-fed group)
[14] = SAD part, all IMB-1018972 doses (N=24)

COc1ccc(CN2CCN(CCOC(=O)c3cccnc3)CC2)c(OC)c1OC [IMB-1018972, 2-[4-[(2,3,4-trimethoxyphenyl)methyl]piperazin-1-yl]ethyl pyridine-3-carboxylate]
Patients reporting increased nocturnal urinary frequency [1]: one | Patients reporting pollakiuria [1]: One | Patients spontaneously reporting renal and urinary findings [1]: 9.1% | Number of TEAEs [2, 7]: 9 | Subjects reporting TEAEs [2, 7]: 50% | Tolerability ([2]; 50 mg and 200 mg MR formulations (4-hour, 8-hour) fasted, 200 mg 8-hour MR fed, except 1 subject with elevated ALT): well tolerated | Number of TEAEs [2, 8]: 11 | Subjects reporting TEAEs [2, 8]: 66.7% | ALT, Subject 505 ([2]; Day 2, MR doses on Days 1, 4, 7, 10): 31 IU/L | ALT, Subject 505 ([2]; Day 5): 72 IU/L | ALT, Subject 505 ([2]; Day 8): 97 IU/L | ALT, Subject 505 ([2]; Day 11 (highest)): 149 IU/L | ALT, Subject 505 ([2]; Day 14): 102 IU/L | ALT, Subject 505 ([2]; Day 16): 84 IU/L | ALT, Subject 505 ([2]; follow-up Day 24): 42 IU/L | Number of drug-related TEAEs (events) of pollakiuria (renal and urinary disorders) [2, 9]: 5 | Subjects reporting pollakiuria [2, 9]: 16.7% | Dose or dissolution time dependency of number and incidence of TEAEs ([2]; single-dose MR part): no apparent dose or dissolution time dependency | Moderate TEAE of ALT increased (1 subject, withdrawn): relationship to the study drug (Investigator) ([2]; single-dose MR part): possibly related | Number of drug-related TEAEs of ALT increased ([2]; single-dose MR part): 1 | Number of drug-related TEAEs of headache ([2]; single-dose MR part): 1 | Severe TEAEs ([2]; single-dose MR part): No severe TEAEs | TEAEs of flushing ([2]; single-dose MR part): No TEAEs of flushing | Number of TEAEs considered not related to the study drug ([2]; single-dose MR part (N=12)): 30 | Number of TEAEs considered related to the study drug ([2]; single-dose MR part (N=12)): 7 | Number of TEAEs, SOC gastrointestinal disorders ([2]; single-dose MR part (N=12)): 5 | Number of TEAEs, SOC general disorders and administration site conditions ([2]; single-dose MR part (N=12)): 11 | Number of TEAEs, SOC nervous system disorders ([2]; single-dose MR part (N=12)): 8 | Subjects reporting TEAEs considered not related to the study drug ([2]; single-dose MR part (N=12)): 83.3% | Subjects reporting TEAEs considered related to the study drug ([2]; single-dose MR part (N=12)): 33.3% | Subjects reporting TEAEs, SOC gastrointestinal disorders ([2]; single-dose MR part (N=12)): 33.3% | Subjects reporting TEAEs, SOC general disorders and administration site conditions ([2]; single-dose MR part (N=12)): 58.3% | Subjects reporting TEAEs, SOC nervous system disorders ([2]; single-dose MR part (N=12)): 58.3% | Difference between fasted and fed administration for number and incidence of TEAEs ([2]; single-dose MR part, 200 mg 8-hour MR): no clear difference | Number of TEAEs [2, 10]: 37 | Subjects reporting TEAEs [2, 10]: 83.3% | Number of TEAEs of mild severity [2, 11]: Thirty-six | Number of TEAEs of moderate severity [2, 11]: 1 | AST levels, Subject 505 ([2]; throughout the entire period): within normal range | Number of TEAEs ([3]; 50 mg IMB-1018972 fasted): 3 | Subjects reporting TEAEs ([3]; 50 mg IMB-1018972 fasted): 50.0% | Number of TEAEs ([3]; 150 mg IMB-1018972 fasted): 5 | Subjects reporting TEAEs ([3]; 150 mg IMB-1018972 fasted): 50.0% | Number of TEAEs [3, 12]: 17 | Subjects reporting TEAEs [3, 12]: 66.7% | Number of TEAEs [3, 13]: 4 | Subjects reporting TEAEs [3, 13]: 20% | Number of TEAEs ([3]; 400 mg IMB-1018972 fasted): 16 | Subjects reporting TEAEs ([3]; 400 mg IMB-1018972 fasted): 100% | Effect of dosing under fed conditions on number and incidence of TEAEs ([3]; FE arm of the SAD part, 150 mg): appeared to attenuate | Severe TEAEs ([3]; SAD part): No severe TEAEs | Number of TEAEs of flushing ([3]; SAD part, IMB-1018972): 6 | Number of TEAEs of flushing of mild severity ([3]; SAD part, IMB-1018972): 1 | Number of TEAEs of flushing of moderate severity ([3]; SAD part, IMB-1018972): 5 | Number of TEAEs considered related to the study drug ([3]; SAD part, IMB-1018972 (N=24)): 21 | Number of TEAEs, SOC gastrointestinal disorders ([3]; SAD part, IMB-1018972 (N=24)): 9 | Number of TEAEs, SOC general disorders and administration site conditions ([3]; SAD part, IMB-1018972 (N=24)): 9 | Number of TEAEs, SOC nervous system disorders ([3]; SAD part, IMB-1018972 (N=24)): 9 | Number of TEAEs, SOC skin and subcutaneous tissue disorders ([3]; SAD part, IMB-1018972 (N=24)): 4 | Number of TEAEs, SOC vascular disorders ([3]; SAD part, IMB-1018972 (N=24)): 7 | Number of drug-related TEAEs, nervous system disorders ([3]; SAD part, IMB-1018972 (N=24)): 5 | Number of drug-related TEAEs, vascular disorders (flushing) ([3]; SAD part, IMB-1018972 (N=24)): 6 | Subjects reporting TEAEs considered related to the study drug ([3]; SAD part, IMB-1018972 (N=24)): 29.2% | Subjects reporting TEAEs, SOC gastrointestinal disorders ([3]; SAD part, IMB-1018972 (N=24)): 16.7% | Subjects reporting TEAEs, SOC general disorders and administration site conditions ([3]; SAD part, IMB-1018972 (N=24)): 20.8% | Subjects reporting TEAEs, SOC nervous system disorders ([3]; SAD part, IMB-1018972 (N=24)): 29.2% | Subjects reporting TEAEs, SOC skin and subcutaneous tissue disorders ([3]; SAD part, IMB-1018972 (N=24)): 16.7% | Subjects reporting TEAEs, SOC vascular disorders ([3]; SAD part, IMB-1018972 (N=24)): 29.2% | Subjects reporting drug-related TEAEs, nervous system disorders ([3]; SAD part, IMB-1018972 (N=24)): 16.7% | Subjects reporting drug-related TEAEs, vascular disorders (flushing) ([3]; SAD part, IMB-1018972 (N=24)): 25% | Number of TEAEs [3, 14]: 45 | Subjects reporting TEAEs [3, 14]: 66.7% | Number of TEAEs of moderate severity ([3]; SAD part, of 48 TEAEs with IMB-1018972 or placebo): 11 | Drug-related TEAEs ([3]; following 50 mg and 150 mg (fasted only group) IMB-1018972): No drug-related TEAEs | Subjects who reported flushing ([3]; single 150 mg IMB-1018972, fasted, FE arm): 2 subjects | Subjects who reported flushing ([3]; single 400 mg IMB-1018972, fasted): Four | Tolerability ([3]; single oral IMB-1018972 50, 150, 400 mg fasted and 150 mg fed): well tolerated | NOAEL dose for a 60-kg individual (HED) [4]: 6480 mg | Maximum recommended starting dose (MRSD), 10-fold safety factor ([4]; 28 days): 648 mg/day | Severity of flushing (2 subjects) ([5]; 200 mg 8-hour MR q12h, fed): mild | Severity of all TEAEs ([5]; multiple-dose MR part): mild | Number of TEAEs ([5]; multiple-dose MR part (N=12)): 40 | Number of TEAEs considered not related to the study drug ([5]; multiple-dose MR part (N=12)): 30 | Number of TEAEs considered related to the study drug ([5]; multiple-dose MR part (N=12)): 10 | Number of TEAEs, SOC gastrointestinal disorders ([5]; multiple-dose MR part (N=12)): 9 | Number of TEAEs, SOC general disorders and administration site conditions ([5]; multiple-dose MR part (N=12)): 4 | Number of TEAEs, SOC musculoskeletal and connective tissue disorders ([5]; multiple-dose MR part (N=12)): 4 | Number of TEAEs, SOC nervous system disorders ([5]; multiple-dose MR part (N=12)): 9 | Number of TEAEs, SOC renal and urinary disorders (pollakiuria) ([5]; multiple-dose MR part (N=12)): 4 | Number of drug-related TEAEs of flushing ([5]; multiple-dose MR part (N=12)): 2 | Number of drug-related TEAEs of pollakiuria ([5]; multiple-dose MR part (N=12)): 4 | Number of drug-related TEAEs, nervous system disorders ([5]; multiple-dose MR part (N=12)): 2 | Subjects reporting TEAEs ([5]; multiple-dose MR part (N=12)): 100% | Subjects reporting TEAEs considered not related to the study drug ([5]; multiple-dose MR part (N=12)): 75% | Subjects reporting TEAEs considered related to the study drug ([5]; multiple-dose MR part (N=12)): 58.3% | Subjects reporting TEAEs, SOC gastrointestinal disorders ([5]; multiple-dose MR part (N=12)): 41.7% | Subjects reporting TEAEs, SOC general disorders and administration site conditions ([5]; multiple-dose MR part (N=12)): 33.3% | Subjects reporting TEAEs, SOC musculoskeletal and connective tissue disorders ([5]; multiple-dose MR part (N=12)): 33.3% | Subjects reporting TEAEs, SOC nervous system disorders ([5]; multiple-dose MR part (N=12)): 58.3% | Subjects reporting TEAEs, SOC renal and urinary disorders (pollakiuria) ([5]; multiple-dose MR part (N=12)): 33.3% | Subjects reporting drug-related TEAEs of flushing ([5]; multiple-dose MR part (N=12)): 16.7% | Subjects reporting drug-related TEAEs of pollakiuria ([5]; multiple-dose MR part (N=12)): 33.3% | Subjects reporting drug-related TEAEs, nervous system disorders ([5]; multiple-dose MR part (N=12)): 16.7% | Subjects withdrawn from the study due to adverse events ([6]; 1 SAE influenza like illness, 1 TEAE ALT increased): Two | Hemodynamic changes and QTc-interval ([6]; IR or MR formulations): no findings of hemodynamic changes, nor changes in the QTc-interval | Dose dependency of number and incidence of TEAEs ([6]; overall): no clear dose dependency | Overall tolerability ([6]; single and multiple oral doses, IR and MR formulations): generally well tolerated | Clinical laboratory, vital signs, 12-lead ECG, continuous cardiac monitoring (telemetry), physical examination ([6]; whole study): no findings of clinical relevance | Deaths ([6]; whole study): no deaths | Severe TEAEs ([6]; whole study): no severe TEAEs | Number of TEAEs of moderate severity ([6]; whole study, all treatments): 12 | Total number of TEAEs ([6]; whole study, all treatments): 181
